The record followed here is EPA's ToxRefDB 2.

The test system of data set [1] is mouse. The note with it: Subchronic oral toxicity in rodents, b6c3f1, Gavage/Intubation, dose end: 13 week, group: systemic.
Data set [2] concerns rat. The note with it: Combined chronic toxicity/carcinogenicity; fischer; Oral; Gavage/Intubation; dose end: 103 week; group: systemic; systemic / hematology / erythrocyte (rbc) count differential / erythrocyte (rbc) + systemic / hematology / hematocrit (hct) / hematocrit (….
The test system of data set [3] is mouse. The note with it: Combined chronic toxicity/carcinogenicity, b6c3f1, Oral, Gavage/Intubation, dose end: 103 week, group: systemic.
Data set [4] deals with rat. As to conditions: Subchronic oral toxicity in rodents, Fischer, Gavage/Intubation, dose end: 13 week, group: systemic, systemic / hematology / erythrocyte (rbc) count differential / erythrocyte (rbc) + systemic / hematology / hematocrit (hct) / hematocrit (….
In data set [5] the test system is rat. The note with it: Combined chronic toxicity/carcinogenicity, fischer, Oral, Feed, dose end: 2 year, group: systemic.
For data set [6], the system named is dog. As to conditions: Chronic toxicity, beagle, Oral, Feed, dose end: 52 week, group: systemic, systemic / in life observation / clinical signs / feces.
Data set [7] has as its system rat. The note with it: Subchronic oral toxicity in rodents, wistar, Feed, dose end: 13 week, group: systemic.
Data set [8] relates to rat. As to conditions: Fertility (Segment I); wistar; Injection; Subcutaneous; group: parental; systemic / organ weight / prostate / nos.
Data set [9] relates to mouse. As to conditions: Prenatal developmental toxicity study, other, Injection, Intraperitoneal, dose end: 15 GD.
Data set [10] concerns rabbit. As to conditions: Prenatal developmental toxicity study, new zealand white, Oral, Gavage/Intubation, dose end: 19 GD, group: maternal.
Data set [11] has as its system dog. The note with it: Subchronic oral toxicity in nonrodent, beagle, Feed, dose end: 15 week, group: systemic, systemic / organ weight / liver / absolute + systemic / organ weight / liver / relative to body weight + systemic / pathology microscopic / ….
Data set [12] concerns rat. The note with it: Prenatal developmental toxicity study, other, Oral, Gavage/Intubation, dose end: 15 GD.
The subject of data set [13] is rat. As to conditions: Subchronic oral toxicity in rodents, sprague dawley, Feed, dose end: 3 month, group: systemic, systemic / clinical chemistry / glucose / glucose + systemic / hematology / erythrocyte (rbc) count differential / erythrocyte (rbc) + ….
[14] abbreviates: systemic / hematology / erythrocyte (rbc) count differential / erythrocyte (rbc) + systemic / hematology / hematocrit (hct) / hematocrit (….
[15] abbreviates: systemic / hematology / hematocrit (hct) / hematocrit (hct) + systemic / pathology microscopic / spleen / hematopoietic cell proliferation….
[16] abbreviates: systemic / pathology microscopic / blood / lymphoma malignant + systemic / pathology microscopic / kidney / hemosiderosis + systemic / ….
The mark [17] stands for this setting: systemic / pathology microscopic / blood / lymphoma malignant + systemic / pathology microscopic / liver / hematopoietic cell proliferation….
Where [18] appears, read: systemic / clinical chemistry / urea nitrogen / urea nitrogen.
[19] abbreviates: systemic / hematology / platelet / platelet + systemic / in life observation / body weight / body weight + systemic / in life observation / ….
[20] abbreviates: discoloration + systemic / hematology / blood clotting / blood clotting - activated….
Where [21] appears, read: systemic / clinical chemistry / sodium / sodium.
Setting [22] is: systemic / hematology / blood clotting / blood clotting - prothrombin time + systemic / hematology / blood clotting / blood clotting - ….
Setting [23] is: group: developmental, developmental / developmental malformation / bone / misshapen + developmental / developmental malformation / bone / short + developmental / ….
Setting [24] is: group: maternal, reproductive / reproductive performance / resorptions / resorptions.
[25] abbreviates: systemic / in life observation / clinical signs / tremors.
Setting [26] is: systemic / in life observation / clinical signs / tremors + reproductive / reproductive performance / aborted / aborted + systemic / ….
[27] abbreviates: group: developmental, developmental / developmental malformation / bone / incomplete ossification + systemic / in life observation / body weight / fetal weight.
[28] abbreviates: group: maternal, systemic / hematology / hematocrit (hct) / hematocrit (hct) + systemic / hematology / hemoglobin (hgb) / hemoglobin (hgb) + systemic / ….

One may read the LOAEL as the lowest tested level that showed an adverse finding. The NOAEL is the highest tested level that showed no adverse finding.

Bounds are passed on as bounds.

As to `Cl.Nc1ccc(Cl)cc1` [4-Chloroaniline hydrochloride], the LOAEL was 15 mg/kg/day in [1] (setting [14]), 6 mg/kg/day in [2], above 30 mg/kg/day in data set [3] (setting [16]) and above 80 mg/kg/day in data set [4]. The no observed adverse effect level (NOAEL) was 7.5 mg/kg/day in [1] (setting [14]), 2 mg/kg/day in data set [2], at least 30 mg/kg/day in data set [3] (setting [16]) and at least 80 mg/kg/day in data set [4]. Also, the LEL was determined as 7.5 mg/kg/day in [1] (setting [15]), 2 mg/kg/day in [2], 3 mg/kg/day in [3] (setting [17]) and 5 mg/kg/day in data set [4]. For the same molecule, the NEL in [1] (setting [15]) is below 7.5 mg/kg/day; in [2], below 2 mg/kg/day; in [3] (setting [17]), below 3 mg/kg/day; in [4], below 5 mg/kg/day.
As to `CC(C)N1C(=O)c2ccccc2NS1(=O)=O` [Bentazon], the LEL is 9 mg/kg/day in [5] (setting [18]), 13.1 mg/kg/day in [6] (discoloration + systemic / in life observation / clinical signs / [other]) and 25.3 mg/kg/day in data set [7] (setting [21]). In addition, the NEL in data set [5] (setting [18]) is below 9 mg/kg/day; in data set [6] (setting [20]), 3.2 mg/kg/day; in data set [7] (setting [21]), below 25.3 mg/kg/day. Further, the results for the LOAEL in [5] (setting [19]), in [6] (discoloration) and in data set [7] (setting [22]) were 180 mg/kg/day, 13.1 mg/kg/day and 243 mg/kg/day, respectively. The results for the NOAEL in data set [5] (setting [19]), in [6] (setting [20]) and in [7] (setting [22]) were 35 mg/kg/day, 3.2 mg/kg/day and 77.8 mg/kg/day, respectively.
Take `NC(=O)N1c2ccccc2C=Cc2ccccc21` [Carbamazepine]: in [8], the LEL amounted to 20 mg/kg/day, the LOAEL was above 20 mg/kg/day, the NEL was below 20 mg/kg/day and the NOAEL is at least 20 mg/kg/day. Besides, in [9] (setting [23]), the LEL was 15 mg/kg/day, the LOAEL was above 30 mg/kg/day, the NEL is below 15 mg/kg/day and the NOAEL was at least 30 mg/kg/day. Moreover, in [9] (setting [24]), the LEL turned out to be 15 mg/kg/day, the LOAEL is above 30 mg/kg/day, the NEL was below 15 mg/kg/day and the NOAEL is at least 30 mg/kg/day.
In the case of `CC(C)(C)N(NC(=O)c1ccc(Cl)cc1)C(=O)c1ccccc1` [Halofenozide], the LEL in [10] (setting [25]) is 20 mg/kg/day; in data set [11], 11.5 mg/kg/day; in data set [12] (setting [27]), 180 mg/kg/day; in [12] (setting [28]), 180 mg/kg/day; in data set [13] it was 52.7 mg/kg/day. Besides, the lowest-observed-adverse-effect level (LOAEL) in data set [10] (setting [25]) came to 20 mg/kg/day; in data set [11], 11.5 mg/kg/day; in data set [12] (setting [27]), 180 mg/kg/day; in [12] (setting [28]), 180 mg/kg/day; in data set [13], 52.7 mg/kg/day. In addition, the NEL was found to be 10 mg/kg/day in data set [10] (setting [26]); 4 mg/kg/day in [11]; 30 mg/kg/day in data set [12] (setting [27]); 30 mg/kg/day in data set [12] (setting [28]); 5.53 mg/kg/day in data set [13]. Also, the NOAEL in data set [10] (setting [26]) came to 10 mg/kg/day; in data set [11], 4 mg/kg/day; in data set [12] (setting [27]), 30 mg/kg/day; in data set [12] (setting [28]), 30 mg/kg/day; in data set [13], 5.53 mg/kg/day.
